Test results from article PMC4498954 (Inorganic chemistry, 2010).

Target: methemoglobin (metHb, human hemoglobin, Fe(III) form) (Homo sapiens, UniProt P68871+P69905)
Sequence (P69905 2-142): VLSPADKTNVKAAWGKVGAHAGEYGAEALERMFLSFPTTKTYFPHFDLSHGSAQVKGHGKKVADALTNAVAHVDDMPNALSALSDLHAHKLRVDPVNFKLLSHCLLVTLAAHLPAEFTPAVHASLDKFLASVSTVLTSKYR
Sequence (P68871 2-147): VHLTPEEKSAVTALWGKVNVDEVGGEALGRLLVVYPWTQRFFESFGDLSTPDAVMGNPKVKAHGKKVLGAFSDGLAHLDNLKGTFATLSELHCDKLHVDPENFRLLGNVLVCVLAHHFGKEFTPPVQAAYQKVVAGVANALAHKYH

O=NO [nitrite]
Kd: 1240 ± 500 µM
